These results are taken from patent US20220281902A1, “MIT[…] IMPROVE METABOLIC SYNDROME DURING AGING” (The Board of Trustees of the Leland Stanford Junior …, priority 2019, published 2022).

For test [1], the system named is TNF-α, IL-6, CRP, leptin receptor, CD68 transcripts. Put plainly: qPCR of inflammatory factors, macrophage pan marker and leptin receptor. Format: in vivo, mouse. How it is done:
(§1) Gene expression & RT qPCR Analyses. Total RNA was isolated using a commercially available kit (OMEGA bio-tek, R6812-02) according to the manufacturer's instructions. cDNA was generated using the PrimeScript RT reagent kit (TAKARA, RR047A). Gene expression were determined by qPCR as described in the product manual. The analysis was evaluated by Bio-Rad Real-Time System (CFX Connect™).
(§2) RNAs from 10 mice (5 treated and 5 Ctrl.) VF fat or livers were isolated by using omega Bio-Tek reagents, and cDNA was transcribed by (TAKARA). qPCR was then performed by using iQ SYBR Green mastermix bioscience on a CFX96 Real-Time System/C1000 Thermal Cycler (Bio-Rad).
For orientation: Quantitative PCR measures a nucleic acid by following its amplification.

The subject of the next test is 3T3-L1 pre-adipocytes. The test can be described thus: In vitro adipocyte differentiation (Oil Red O, protein blotting). The test is classed as cell-based.
The next test has as its system AMPK, FOXO1, SIRT3. The test can be described thus: qPCR and immunoblotting of hepatic glucose metabolism and longevity markers. The test is classed as in vivo, mouse. How it is done:
Immunoblotting analyses. Western blot analyses carried out in mouse livers, heart and adipose tissues collected from aged mice after treatments. Proteins (40 μg) were separated by electrophoresis on a sodium dodecyl sulfate (SDS) 4-20% polyacrylamide gel under reducing conditions. Membranes (Amersham Hybond PVDF, Germany) were probed overnight at 4° C. using Total OX-OPHOS Rodent cocktail (ab110413, USA), Complex IV, AMPK γ1, PGC-1α and Pparγ, FOXO1, TNF-α, IL-6 (USA, abCAM) and then incubated with polyclonal Goat anti-mouse IgG H&R (1:2000, ab6789, USA) in blocking buffer for 2 h at room temperature. To assure equal loading and/or to normalize protein content, the membrane blots were incubated with mouse anti-β-actin monoclonal antibody (mAbcam8227). Proteins were visualized using a chemiluminescence ECL Western blotting detection reagent (Bio-rad, USA). Quantification of protein was performed by chemiluminescence blot scanning (Quantity One™ version 4.6.3. Bio Rad).
as §1, §2

Test [2] can be described thus: Body weight variations on chow diet. The test is classed as in vivo, C57BL/6 mice. The note with it: for body weight lighter than controls: male mice. As to the method:
Animal experimentation. […] Ltd) were group-housed in a barrier facility with 12-hr light/12-hr dark cycles. All mice received a regular chow diet ad libitum (PicoLab 5053 Rodent Diet 20; Lab Diets) except for HFD (40-60%) and CR models. The compound was then administered in drinking water ad libitum at either 90-100 or 100-120 mg/kg/day, based on the previously measured water consumption.
The C57BL/6 mice were maintained on a standard purified mouse diet (PicoLab 5053 Rodent Diet 20; Lab Diets) until they reached 2 months of age when the treatments started. The CR animals were subjected to a lifelong restriction on PicoLab 5053 Rodent Diet 20; Lab Diets, starting at 12 weeks of age, with a daily food allotment of 60% of that eaten by the ad lib animals. Besides CR animals, the C57BL/6 groups in this study were fed the standard high fat diet (HFD; 60 or 40% fat). Body weights were measured weekly at the same time each week. Food and water intake were measured once every month for 3-6 consecutive days at the same time each month. Water consumption was measured for 2 weeks prior to the start of administration. Compound was generated and modified for better permeability in to mitochondria, evaluated by HPLC, was 96%-97%. The administration began at 8 weeks of age and continued for 16 months, until they became 18-month-old. The drug solution was prepared weekly in small batches by dissolving the compound into autoclaved water at the respective doses and filtering sterilely. Aliquots were collected from each batch and measured by HPLC to confirm stability of the compound. Water bottles and cages were changed twice weekly. Fed and fasted blood samples were collected monthly at the same time each month from tail and used for glucose, insulin, blood cell counts, lipid analysis using assay kits (Robio, China) and HbA1C assay kit (Crystal chem, USA) following the manufacturer protocol. IPGTTs and ITTs were conducted throughout morning and early afternoon after fasting for 16-18 hrs. and 4 hrs., respectively, once before start of treatment administration began and every 3 months thereafter. Rectal body temperature was measured monthly, as described previously. Whole blood samples, and histopathology were analyzed after 14 months of treatment. Tissue samples were collected after 10-14 months from mice, sacrificed and used for WB and qPCR microarray, and other analyses. All animal studies were approved by the Shanghai Jiao Tong University Animal Studies Committee and were in accordance with NIH guidelines. (Number of mice; SD=30, HFD=10, CR=20).

In a further test the test system is p16, p21 transcripts. Put plainly: qPCR of DNA damage and WAT senescence markers. Format: in vivo, mouse. The settings on record: WAT, after 14 months treatment. As to the method:
as §1, §2

Setting [3] is: visceral fat, 14 months old mice.
The mark [4] stands for this setting: liver, 14 months treatment (FIG. 6A).

Regarding `Cc1ncsc1CCOC(=O)C[P+](c1ccccc1)(c1ccccc1)c1ccccc1.[Br-]` [HG1a-1, (2-(2-(4-Methylthiazol-5-yl)Ethoxy)-2-Oxoethyl) Triphenylphosphonium Bromide], the “leptin receptor transcript abundance increase” value in test [1] (mouse livers) amounted to 2 fold. Besides, the “decline in abundance of CD68” value in test [1] (visceral fat) was 5 fold. Besides, in test [1] (setting [3]), the CRP transcript entry is reported as “trivial changes”, the IL-6 transcript entry was “declined markedly” and the TNF-α transcript entry was “declined markedly”. Also, the adipocyte differentiation result in the test with 3T3-L1 pre-adipocytes (3T3-L1, up to 14 days) was “poorly differentiated, immature adipocytes”. For the same molecule, in the test with 3T3-L1 pre-adipocytes (3T3-L1 cells), the “protein abundance of Pparγ” value is listed as “significant reduction”. Moreover, in the test with AMPK, FOXO1, SIRT3 (setting [4]), the APMK amplified came to 5 fold, the FOXO1 amplified came to 3 fold and the SIRT3 amplified result was “one-fold”. Moreover, in the test with AMPK, FOXO1, SIRT3 (livers of treated mice), the “enhanced deacetylation of FoxO-1” value was found to be 3 fold and the “relative levels of phosphorylated AMPK increased” value was found to be 5 fold. In the test on AMPK, FOXO1, SIRT3 (treated group (FIG. 6A)), the SIRT-3 level result was “marked upgrade”. In addition, in test [2] (female mice, by 9 months), the “body weight decrease vs controls” value stood at 26%. Besides, the “body weight less than controls” value in test [2] (female mice, end of 5 months) was determined as 12%. Besides, the “body weight lighter than controls” value in test [2] (after 14 months treatment) is 25%. The “body weight lighter than controls” value in test [2] (end of 5 months) is 18%. In the test with p16, p21 transcripts, the p16 expression decline is reported as 10 fold and the p21 expression result is recorded as “remained unchanged”.
